Our source for the IC50 values is article PMC7108927, “TYK2 inhibition reduces type 3 immunity and modifies disease progression in murine spondyloarthritis” (The Journal of Clinical Investigation, 2020).

pIC50: −log10 of the molar value.

Targets include TYK2 (Homo sapiens, UniProt P29597); JAK1 (Homo sapiens, UniProt P23458); JAK2 (Homo sapiens, UniProt O60674).
What all share (assay): radiometric kinase assay with peptide substrate
What all share (assay type): biochemical

The target in another test is T1, JAK3 (Homo sapiens, UniProt P52333).
T1 sequence (P52333 1-1124): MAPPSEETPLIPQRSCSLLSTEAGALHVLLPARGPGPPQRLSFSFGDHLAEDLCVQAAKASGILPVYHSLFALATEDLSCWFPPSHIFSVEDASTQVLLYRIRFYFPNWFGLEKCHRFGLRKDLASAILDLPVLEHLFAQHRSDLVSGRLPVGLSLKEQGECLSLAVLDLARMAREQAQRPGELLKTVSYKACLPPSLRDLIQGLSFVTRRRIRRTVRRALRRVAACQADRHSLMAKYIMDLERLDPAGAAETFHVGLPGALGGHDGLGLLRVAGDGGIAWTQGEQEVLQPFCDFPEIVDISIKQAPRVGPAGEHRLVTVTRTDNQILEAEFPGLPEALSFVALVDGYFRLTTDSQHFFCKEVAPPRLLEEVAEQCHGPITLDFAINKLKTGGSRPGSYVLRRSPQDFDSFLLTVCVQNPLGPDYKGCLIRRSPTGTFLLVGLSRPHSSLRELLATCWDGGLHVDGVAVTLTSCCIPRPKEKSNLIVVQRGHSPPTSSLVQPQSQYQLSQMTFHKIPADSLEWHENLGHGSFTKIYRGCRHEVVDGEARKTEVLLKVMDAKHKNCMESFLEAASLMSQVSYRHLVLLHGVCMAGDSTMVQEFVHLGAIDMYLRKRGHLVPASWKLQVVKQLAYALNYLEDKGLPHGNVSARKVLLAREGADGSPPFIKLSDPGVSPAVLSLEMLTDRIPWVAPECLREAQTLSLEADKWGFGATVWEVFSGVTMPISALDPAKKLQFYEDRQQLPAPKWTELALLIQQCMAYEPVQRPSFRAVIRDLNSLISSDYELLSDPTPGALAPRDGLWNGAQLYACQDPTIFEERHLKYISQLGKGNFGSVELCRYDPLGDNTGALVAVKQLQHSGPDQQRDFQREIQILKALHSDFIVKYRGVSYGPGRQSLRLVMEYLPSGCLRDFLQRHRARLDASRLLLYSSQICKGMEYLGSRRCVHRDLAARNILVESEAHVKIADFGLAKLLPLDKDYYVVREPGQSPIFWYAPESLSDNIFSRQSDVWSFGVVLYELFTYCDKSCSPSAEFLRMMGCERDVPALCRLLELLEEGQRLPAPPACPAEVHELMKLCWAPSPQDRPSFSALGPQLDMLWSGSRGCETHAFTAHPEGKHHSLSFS

Sequence of JAK2 (O60674 whole entry): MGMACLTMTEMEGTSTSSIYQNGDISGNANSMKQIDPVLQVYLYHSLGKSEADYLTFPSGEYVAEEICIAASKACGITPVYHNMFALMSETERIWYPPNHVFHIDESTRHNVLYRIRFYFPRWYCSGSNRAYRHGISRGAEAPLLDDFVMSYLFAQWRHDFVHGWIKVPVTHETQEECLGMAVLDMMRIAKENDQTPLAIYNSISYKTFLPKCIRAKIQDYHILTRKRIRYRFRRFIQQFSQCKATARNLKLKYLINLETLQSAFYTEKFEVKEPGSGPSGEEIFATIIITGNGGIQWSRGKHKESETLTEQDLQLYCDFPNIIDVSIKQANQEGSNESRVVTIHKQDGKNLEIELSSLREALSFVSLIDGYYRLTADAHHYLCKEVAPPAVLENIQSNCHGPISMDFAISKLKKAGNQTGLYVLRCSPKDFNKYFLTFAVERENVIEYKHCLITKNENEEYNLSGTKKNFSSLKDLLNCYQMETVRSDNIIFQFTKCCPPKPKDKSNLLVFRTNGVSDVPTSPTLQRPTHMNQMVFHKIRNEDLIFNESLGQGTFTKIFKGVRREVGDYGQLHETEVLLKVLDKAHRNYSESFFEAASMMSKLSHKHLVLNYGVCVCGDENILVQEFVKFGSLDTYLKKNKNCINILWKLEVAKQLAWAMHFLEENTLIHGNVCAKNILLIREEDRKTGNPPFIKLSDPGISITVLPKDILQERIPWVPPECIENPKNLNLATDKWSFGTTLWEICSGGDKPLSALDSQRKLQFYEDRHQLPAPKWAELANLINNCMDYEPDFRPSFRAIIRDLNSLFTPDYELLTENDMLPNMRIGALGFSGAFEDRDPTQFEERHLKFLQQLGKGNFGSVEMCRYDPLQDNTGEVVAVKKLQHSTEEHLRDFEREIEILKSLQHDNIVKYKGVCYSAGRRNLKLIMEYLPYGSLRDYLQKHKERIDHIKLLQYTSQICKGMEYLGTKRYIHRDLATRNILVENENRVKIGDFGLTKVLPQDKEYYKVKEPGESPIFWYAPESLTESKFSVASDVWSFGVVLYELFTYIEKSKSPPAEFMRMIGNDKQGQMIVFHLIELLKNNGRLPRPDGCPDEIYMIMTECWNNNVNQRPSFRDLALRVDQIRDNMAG
Sequence of JAK1 (P23458 whole entry): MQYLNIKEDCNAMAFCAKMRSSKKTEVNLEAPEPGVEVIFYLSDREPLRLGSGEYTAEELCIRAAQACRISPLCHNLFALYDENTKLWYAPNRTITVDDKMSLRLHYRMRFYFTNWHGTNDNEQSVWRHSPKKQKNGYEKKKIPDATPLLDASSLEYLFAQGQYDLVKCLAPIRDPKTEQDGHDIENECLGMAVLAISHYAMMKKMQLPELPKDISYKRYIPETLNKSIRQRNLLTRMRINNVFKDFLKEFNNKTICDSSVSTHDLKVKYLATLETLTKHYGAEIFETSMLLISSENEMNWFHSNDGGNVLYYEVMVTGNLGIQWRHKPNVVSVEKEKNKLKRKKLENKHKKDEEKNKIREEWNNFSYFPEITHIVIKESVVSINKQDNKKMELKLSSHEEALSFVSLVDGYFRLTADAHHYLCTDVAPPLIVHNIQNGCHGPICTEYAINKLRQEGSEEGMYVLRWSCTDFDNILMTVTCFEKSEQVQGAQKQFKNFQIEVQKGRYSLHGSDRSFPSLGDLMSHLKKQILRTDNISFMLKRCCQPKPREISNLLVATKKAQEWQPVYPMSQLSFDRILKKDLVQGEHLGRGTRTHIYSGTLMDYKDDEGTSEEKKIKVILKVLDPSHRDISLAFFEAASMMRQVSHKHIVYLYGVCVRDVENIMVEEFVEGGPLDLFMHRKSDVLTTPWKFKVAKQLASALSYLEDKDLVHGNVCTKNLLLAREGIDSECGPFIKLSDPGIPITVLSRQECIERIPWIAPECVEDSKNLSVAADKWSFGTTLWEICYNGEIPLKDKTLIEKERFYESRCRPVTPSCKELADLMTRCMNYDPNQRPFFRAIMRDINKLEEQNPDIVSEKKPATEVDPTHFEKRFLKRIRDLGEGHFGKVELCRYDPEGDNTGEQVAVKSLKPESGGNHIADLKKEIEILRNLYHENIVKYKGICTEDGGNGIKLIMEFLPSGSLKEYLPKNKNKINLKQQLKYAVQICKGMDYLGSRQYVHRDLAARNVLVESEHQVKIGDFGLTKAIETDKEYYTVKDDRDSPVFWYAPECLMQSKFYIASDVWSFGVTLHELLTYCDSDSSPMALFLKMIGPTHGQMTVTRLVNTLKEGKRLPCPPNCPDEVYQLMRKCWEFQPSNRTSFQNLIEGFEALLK
Sequence of TYK2 (P29597 whole entry): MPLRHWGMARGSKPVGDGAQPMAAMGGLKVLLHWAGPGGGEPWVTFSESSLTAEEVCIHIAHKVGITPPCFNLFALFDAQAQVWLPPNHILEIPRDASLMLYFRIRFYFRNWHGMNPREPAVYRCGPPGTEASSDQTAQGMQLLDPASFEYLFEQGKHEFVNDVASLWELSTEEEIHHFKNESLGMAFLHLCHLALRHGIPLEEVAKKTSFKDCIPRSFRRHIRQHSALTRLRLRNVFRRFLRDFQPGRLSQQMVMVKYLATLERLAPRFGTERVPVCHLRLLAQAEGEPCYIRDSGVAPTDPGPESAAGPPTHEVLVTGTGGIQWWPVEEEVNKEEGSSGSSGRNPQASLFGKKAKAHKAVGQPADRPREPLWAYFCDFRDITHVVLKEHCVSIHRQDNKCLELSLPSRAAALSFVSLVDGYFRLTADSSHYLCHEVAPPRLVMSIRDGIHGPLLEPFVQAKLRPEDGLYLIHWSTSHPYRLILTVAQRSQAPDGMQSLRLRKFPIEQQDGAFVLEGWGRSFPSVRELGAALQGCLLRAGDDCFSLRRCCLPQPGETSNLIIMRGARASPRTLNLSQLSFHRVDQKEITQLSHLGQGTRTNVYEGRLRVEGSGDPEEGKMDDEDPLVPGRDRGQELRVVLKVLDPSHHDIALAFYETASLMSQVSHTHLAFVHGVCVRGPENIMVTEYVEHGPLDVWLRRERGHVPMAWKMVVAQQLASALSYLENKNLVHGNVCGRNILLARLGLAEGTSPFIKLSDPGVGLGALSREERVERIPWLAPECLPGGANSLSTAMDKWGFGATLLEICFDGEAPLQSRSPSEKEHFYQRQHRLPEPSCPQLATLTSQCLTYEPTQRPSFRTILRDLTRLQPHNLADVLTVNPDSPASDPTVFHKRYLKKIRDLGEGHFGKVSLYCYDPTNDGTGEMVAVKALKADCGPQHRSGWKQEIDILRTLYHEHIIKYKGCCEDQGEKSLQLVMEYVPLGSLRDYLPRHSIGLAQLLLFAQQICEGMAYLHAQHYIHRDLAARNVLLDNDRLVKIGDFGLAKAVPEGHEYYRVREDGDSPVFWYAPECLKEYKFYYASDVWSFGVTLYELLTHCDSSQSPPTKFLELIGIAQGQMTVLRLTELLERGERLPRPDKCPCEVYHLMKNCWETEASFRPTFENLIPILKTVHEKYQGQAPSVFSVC

Take NDI-031407: the pIC50 (usually the negative decadic logarithm of the IC50, by convention in mol/L) against TYK2 is 9.68; on JAK3 it was 8.38; on JAK1 it was 7.34; on JAK2, 7.51.
